Here are results for 6 compounds from US8436003B2, “Substituted imidazo- and triazolopyrimidines, imidazo- and pyrazolopyrazines and imidazotriazines” (Bayer Intellectual Property GmbH, priority 2008, dated 2013).

Usually IC50 stands for the midpoint of a concentration-inhibition curve. A high value points to weaker potency.

T1 sequence (P49841 whole entry): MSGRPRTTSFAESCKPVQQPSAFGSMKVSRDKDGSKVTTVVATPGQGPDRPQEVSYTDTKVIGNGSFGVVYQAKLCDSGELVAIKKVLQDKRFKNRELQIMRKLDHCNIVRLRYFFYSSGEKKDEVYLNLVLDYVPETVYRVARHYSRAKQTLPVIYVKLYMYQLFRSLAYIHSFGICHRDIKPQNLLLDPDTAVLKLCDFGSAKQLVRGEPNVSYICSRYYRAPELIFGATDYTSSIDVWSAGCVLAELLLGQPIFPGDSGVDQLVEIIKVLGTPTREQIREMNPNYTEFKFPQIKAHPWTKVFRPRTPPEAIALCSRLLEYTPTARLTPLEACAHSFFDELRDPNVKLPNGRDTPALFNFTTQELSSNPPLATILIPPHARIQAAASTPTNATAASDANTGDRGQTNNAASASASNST

The assay addresses T1, GSK3β (Homo sapiens, UniProt P49841).
T1 construct: purchased Upstate 14-306
The assay can be described thus: In vitro biochemical GSK3β inhibition assay (coupled pyruvate kinase/lactate dehydrogenase, NADH fluorescence). Particulars: 5 nM GSK3β, 40 μM GSK3β substrate GSM, 50 μM ATP, 30° C. for 2 hours. As for the experimental part: The inhibitory activity of active substances is determined in a biochemical assay. The ingredients required for this purpose are mixed in a black 384-well microtitre plate with transparent base (from Greiner, catalogue number 781092). The requirements in this connection for each well of the 384-well microtitre plate are 5 nM GSK3β (from Upstate, catalogue number 14-306), 40 μM GSK3β substrate GSM (sequence H-RRRPASVPPSPSLSRHS-(pS)-HQRR, from Upstate, catalogue number 2-533), 30 μM nicotinamide adenine dinucleotide NADH (Roche Diagnostics, catalogue number 10107735), 50 μM adenosine triphosphate ATP (from Sigma, catalogue number A7966), 2 mM phosphoenolpyruvate (from Roche, catalogue number 128112), and also about 1 U/ml of pyruvate kinase and about 1 U/ml of lactate dehydrogenase, which are present together in a stock formulation (from Roche, catalogue number 10737291001, suspension with about 450 U/ml of pyruvate kinase activity, about 450 U/ml of lactate dehydrogenase activity in […] ammonium sulphate solution pH 6), where 1 unit pyruvate kinase converts, at pH 7.6 and 37° C., 1 μmol of phosphoenolpyruvate into pyruvate per minute, and where 1 unit of lactate dehydrogenase reduces, at pH 7.5 and 37° C., 1 μmol of pyruvate to lactate per minute. The required reaction buffer in which the biochemical reaction takes place consists of 50 mM Trizma hydrochloride Tris-HCl pH: 7.5 (from Sigma, catalogue number T3253), 5 mM magnesium chloride MgCl2 (from Sigma, catalogue number M8266), 0.2 mM DL-dithiothreitol DTT (from Sigma, catalogue number D9779), 2 mM ethylenediaminetetraacetic acid EDTA (from Sigma, catalogue number E6758), 0.01% Triton X-100 (from Sigma, catalogue number T8787) and 0.05% bovine serum albumin BSA (from Sigma, catalogue number B4287).
Active substances are dissolved in dimethyl sulfoxide DMSO (from Sigma, catalog number D8418) in a concentration of 10 mM. Active substances are added in serial concentrations of 10 μM, 1 μM, 0.1 μM, 0.01 μM, 0.001 μM, 0.0001 μM, 0.00001 μM, 0.000001 μM to the mixtures of the biochemical reaction. As control, dimethyl sulfoxide is added instead of substance in a final concentration of 0.1%.
The reaction is incubated at 30° C. for 2 hours and then the resulting fluorescence is measured in a Tecan Safire-XFLUOR4 instrument, version V4.50 (serial number 12901300283) with the specifications: measurement mode—fluorescence measured from below, extinction wavelength 340 nm, emission wavelength 465 nm, slit width extinction 5 nm, slit width emission 5 nm, gain mode 120, delay 0 μs, number of light flashes per measurement 3, and an integration time of 40 μs.
The activity of the active substances is calculated in relation to these 0% and 100%.
For `CC(C)N1CCC(c2nc3cc(-c4ccc(F)cc4Cl)nc(N4CCCC(Nc5ccc(C(=O)C(F)(F)F)c(N)n5)C4)n3n2)CC1` (racemic) [Example 13, 1-{2-Amino-6-[(1-{7-(2-chloro-4-fluorophenyl)-2-[1-(propan-2-yl)piperidin-4-yl][1,2,4]-triazolo[1,5-c]pyrimidin-5-yl}piperidin-3-yl)amino]pyridin-3-yl}-2,2,2-trifluoroethanone], the 50% inhibitory concentration (IC50) was 4 nM.

Consider `CC(C)N1CCC(c2nc3cc(-c4ccc(F)cc4Cl)nc(N4CCCC(Nc5ccc(C(=O)C(F)(F)F)c(N)n5)C4)n3n2)CC1` (racemic) [Example Ent-A-13, 1-{2-Amino-6-[(1-{7-(2-chloro-4-fluorophenyl)-2-[1-(propan-2-yl)piperidin-4-yl][1,2,4]-triazolo[1,5-c]pyrimidin-5-yl}piperidin-3-yl)amino]pyridin-3-yl}-2,2,2-trifluoroethanone], for which 2 nM corresponded to half-maximal inhibition (IC50). The figure for `CC(C)N1CCC(c2nc3cc(-c4ccc(Cl)cc4Cl)nc(NCCNc4ccc(C(=O)C(F)(F)F)c(N)n4)n3n2)CC1` [Example 1, 1-(2-Amino-6-{[2-({7-(2,4-dichlorophenyl)-2-[1-(propan-2-yl)piperidin-4-yl][1,2,4]triazolo[1,5-c]-pyrimidin-5-yl}amino)ethyl]amino}pyridin-3-yl)-2,2,2-trifluoroethanone] is 15 nM; for `CC(C)N1CCC(c2nc3cc(-c4ccc(Cl)cc4Cl)nc(N4CCCC(Nc5ccc(C(=O)C(F)(F)F)c(N)n5)C4)n3n2)CC1` (stereo not drawn) [Example 5, 1-{2-Amino-6-[(1-{7-(2,4-dichlorophenyl)-2-[1-(propan-2-yl)piperidin-4-yl][1,2,4]triazolo[1,5-c]-pyrimidin-5-yl}piperidin-3-yl)amino]pyridin-3-yl}-2,2,2-trifluoroethanone] it is 10 nM.

Consider `Nc1nc(NCCNc2nc(-c3ccc(Cl)cc3Cl)cc3nc(C4CCN(CC5CC5)CC4)nn23)ccc1C(=O)C(F)(F)F` [Example 21, 1-(2-Amino-6-{[2-({2-[1-(cyclopropylmethyl)piperidin-4-yl]-7-(2,4-dichlorophenyl)-[1,2,4]triazolo[1,5-c]pyrimidin-5-yl}amino)ethyl]amino}pyridin-3-yl)-2,2,2-trifluoroethanone], for which the IC50 turned out to be 20 nM. This IC50 is about 2-fold higher than that of the compound before. For `Nc1nc(NCCNc2nc(-c3ccc(Cl)cc3Cl)cc3nc(C4CCN(CC(=O)O)CC4)nn23)ccc1C(=O)C(F)(F)F` [Example 23, (4-{5-[(2-{[6-Amino-5-(trifluoroacetyl)pyridin-2-yl]amino}ethyl)amino]-7-(2,4-dichlorophenyl)-[1,2,4]triazolo[1,5-c]pyrimidin-2-yl}piperidin-1-yl)acetic acid], the IC50 was 9 nM.
